Assay results: ChEMBL document CHEMBL1150424, “Novel azabicyclo[3.2.2]nonane derivatives and their activities against Plasmodium falciparum K1 and Trypanosoma brucei rhodesiense” (Bioorg Med Chem, 2008)

Legend:
[1] = test system: Trypanosoma brucei rhodesiense; experiment: Antitrypanosomal activity against Trypanosoma brucei rhodesiense STIB 900 after 72 hrs by microplate alamar blue assay; format: functional, organism-based; details: STIB 900, 72 h
L6 = experiment: Cytotoxicity against rat L6 cells after 72 hrs by microplate alamar blue assay; format: cell-based; details: L6, 72 h
[2] = Selectivity index, Ratio of IC50 for L6 cells to IC50 for Trypanosoma brucei rhodesiense STIB 9; format: functional
Plasmodium falciparum = experiment: Antiplasmodial activity against chloroquine and pyrimethamine-resistant Plasmodium falciparum K1 after 48 hrs; format: functional, organism-based; details: K1, 48 h
[3] = Selectivity index, Ratio of IC50 for L6 cells to IC50 for Plasmodium falciparum K1; format: functional

| Compound | IC50 [1] | IC50 (L6) | Ratio IC50 [2] | IC50 (Plasmodium falciparum) | Ratio IC50 [3] |
| --- | --- | --- | --- | --- | --- |
| NCCN1CCC2(N3CCCC3)CC(c3ccc(Cl)cc3)C1C(c1ccc(Cl)cc1)C2 (racemic) | 210 nM | 4650 nM | 22.14 | 320 nM | 14.53 |
| CN(C)C12CCNC([C@H](c3ccccc3)C1)[C@H](c1ccccc1)C2 | 600 nM |  |  |  |  |
| CN(C)C12CCNC(C(c3ccc(Br)cc3)C1)C(c1ccc(Br)cc1)C2 (racemic) | 87 nM | 9030 nM | 103.9 | 340 nM | 26.56 |
| CN(C)C12CCN(CCN)C(C(c3ccc(Cl)cc3)C1)C(c1ccc(Cl)cc1)C2 (racemic) | 500 nM | 10200 nM | 20.44 | 900 nM | 11.36 |
| Cc1ccc(C2CC3(N(C)C)CCNC2C(c2ccc(C)cc2)C3)cc1 (racemic) | 120 nM | 40500 nM | 337.2 | 450 nM | 89.91 |
| NC(=O)CN1CCC2(N3CCCCC3)CC(c3ccc(Cl)cc3)C1C(c1ccc(Cl)cc1)C2 (racemic) | 990 nM | 23800 nM | 24 | 1570 nM | 15.13 |
| NC(=O)CN1CCC2(N3CCCC3)CC(c3ccc(Cl)cc3)C1C(c1ccc(Cl)cc1)C2 (racemic) | 760 nM | 23900 nM | 31.45 | 830 nM | 28.8 |
| NCCN1CCC2(N3CCCCC3)CC(c3ccc(Cl)cc3)C1C(c1ccc(Cl)cc1)C2 (racemic) | 76 nM | 3370 nM | 44.34 | 150 nM | 22.47 |
| CCOC(=O)CN1CCC2(N(C)C)CC(c3ccc(Cl)cc3)C1C(c1ccc(Cl)cc1)C2 (racemic) | 1780 nM | 5120 nM | 2.88 | 700 nM | 7.31 |
| OCCN1CCC2(N3CCCCC3)CC(c3ccc(Cl)cc3)C1C(c1ccc(Cl)cc1)C2 (racemic) | 670 nM | 9690 nM | 14.46 | 700 nM | 13.84 |
| COc1ccc(C2CC3(N(C)C)CCNC2C(c2ccc(OC)cc2)C3)cc1 (racemic) | 670 nM | 117000 nM | 174.7 | 2690 nM | 43.52 |
| CCOC(=O)CN1CCC2(N3CCCCC3)CC(c3ccc(Cl)cc3)C1C(c1ccc(Cl)cc1)C2 (racemic) | 2190 nM | 13100 nM | 5.97 | 1010 nM | 12.94 |
| C[C@@H]1CC[C@H]2[C@@H](C)C(=O)O[C@@H]3O[C@@]4(C)CC[C@@H]1[C@]32OO4 [ARTEMISININ] |  |  |  | 6.4 nM |  |
| CN(C)C12CCNC(C(c3ccc(Cl)c(Cl)c3)C1)C(c1ccc(Cl)c(Cl)c1)C2 (racemic) | 90 nM | 6440 nM | 71.56 | 400 nM | 16.1 |
| CN(C)C12CCN(CC(N)=O)C(C(c3ccc(Cl)cc3)C1)C(c1ccc(Cl)cc1)C2 (racemic) | 910 nM | 25500 nM | 28.07 | 1110 nM | 23.01 |
| Clc1ccc(C2CC3(N4CCCCC4)CCNC2C(c2ccc(Cl)c(Cl)c2)C3)cc1Cl (racemic) | 160 nM | 8870 nM | 55.44 | 540 nM | 16.43 |
| CN(C)C12CCNC(C(c3ccc(F)cc3)C1)C(c1ccc(F)cc1)C2 (racemic) | 440 nM | 186000 nM | 422.7 | 890 nM | 209 |
| CN(C)C12CCNC(C(c3cccc4ccccc34)C1)C(c1cccc3ccccc13)C2 (racemic) | 110 nM | 6470 nM | 58.82 | 480 nM | 13.48 |
| CN(C)C12CCNC(C(c3ccc(C(F)(F)F)cc3)C1)C(c1ccc(C(F)(F)F)cc1)C2 (racemic) | 80 nM | 9440 nM | 118 | 850 nM | 11.11 |
| Clc1ccc(C2CC3(N4CCCC4)CCNC2C(c2ccc(Cl)c(Cl)c2)C3)cc1Cl (racemic) | 150 nM | 6870 nM | 45.8 | 280 nM | 24.54 |
